The source of these data is patent publication US7208505B2, “β3 adrenergic agonists” (Eli Lilly and Company, priority 2001, dated 2007).

For the first assay, the target named is T1, human β3 adrenergic receptor (Homo sapiens, UniProt P13945).
T1 construct: expressed in transfected cells
T1 sequence (P13945 whole entry): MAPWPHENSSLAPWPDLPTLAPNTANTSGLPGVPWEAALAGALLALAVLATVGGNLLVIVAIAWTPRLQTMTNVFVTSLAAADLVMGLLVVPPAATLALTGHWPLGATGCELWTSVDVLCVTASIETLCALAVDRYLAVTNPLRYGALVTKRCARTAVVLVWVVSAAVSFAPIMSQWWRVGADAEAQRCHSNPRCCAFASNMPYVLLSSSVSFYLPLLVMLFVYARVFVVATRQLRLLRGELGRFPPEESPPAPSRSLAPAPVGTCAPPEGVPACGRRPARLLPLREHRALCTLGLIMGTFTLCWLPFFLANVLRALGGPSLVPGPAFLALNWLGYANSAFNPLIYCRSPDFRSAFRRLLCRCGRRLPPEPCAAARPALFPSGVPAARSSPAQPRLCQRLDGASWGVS
Description: whole cell receptor coupled c-AMP assay (Emax relative to isoproterenol). In kind it is cell-based. The note with it: % intrinsic activity relative to isoproterenol; transfected CHO cells. Put shortly: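 Stably transfected CHO DXB-11 cells expressing human β3 receptor incubated 20 min at 37 °C with compound in HBSS/HEPES pH 7.4 containing 1 mM IBMX. cAMP measured by SPA; four-parameter logistic fit, Emax = maximal response as % of isoproterenol maximum.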
As a reminder, the Emax is the size of the effect at its maximum, as opposed to the concentration needed. In turn, `CC(Cc1c[nH]c2c(OCC#N)cccc12)NC[C@H](O)COc1ccccc1-c1ccno1` (stereo partly drawn) [Example 199] returned a maximum response (Emax) of 22.8%.

The assay is the same for the next values; noted with them: % intrinsic activity: maximal response divided by isoproterenol maximal response times 100; transfected CHO cells; average of at least 3 runs.
Take `CC(=O)c1ccc(-c2cccc3c(CC(C)(C)NC[C@H](O)COc4ccccc4-n4cccc4)c[nH]c23)cc1` [Example 50]: the “Emax (%) ± SEM” value came out at 38.4 ± 3.2%.
As for `C[C@H](CN1CCc2ccccc21)NC[C@H](O)COc1ccccc1-c1cccs1` [Example 128], the “Emax (%) ± SEM” value came out at 46.5 ± 3.0%.
Still for that read-out and setting: under `CC(C)(Cc1c[nH]c2ccccc12)NC[C@H](O)COc1ccccc1-c1ccc(F)s1` [Example 126] stands 76.1 ± 2.9%; under `CC(C)(Cc1c[nH]c2c(F)cccc12)NC[C@H](O)COc1ccccc1-c1ccon1` [Example 173], 50.2 ± 1.5%.
On to `COC(=O)c1ccc2c(CC(C)(C)NC[C@H](O)COc3ccccc3-c3cccs3)c[nH]c2c1` [Example 75], for which the “Emax (%) ± SEM” value was 47.2 ± 0.3%.
Same read-out and setting: the same measure for `CC(C)(Cc1c[nH]c2c(OCC(=O)O)cccc12)NC[C@H](O)COc1ccccc1-c1cccs1` [Example 224]: 94.3 ± 4.6%; for `CC(C)(Cc1c[nH]c2c(Oc3ncccc3C#N)cccc12)NC[C@H](O)COc1ccccc1-c1ccon1` [Example 113]: 76.5 ± 3.0%; for `CC(C)(Cc1c[nH]c2c(OCC#N)cccc12)NCC(O)COc1ccccc1-c1ccoc1` (stereo not drawn) [Example 5]: 66.0 ± 3.6%.
The same measure, in the same setting: the same measure for `C[C@H](NC[C@H](O)COc1ccccc1-c1cccs1)C(=O)N1CCc2ccccc21` [Example 130]: 36.3 ± 1.8%; for `CC(C)(Cc1c[nH]c2c(-c3ccsc3)cccc12)NC[C@H](O)COc1ccccc1-c1ccon1` [Example 107]: 57.9 ± 6.2%; for `CC(C)(Cc1c[nH]c2c(Oc3ncccc3C#N)cccc12)NC[C@H](O)COc1ccccc1-c1cccs1` [Example 112]: 97.7 ± 5.9%.
Consider `CC(C)(Cc1c[nH]c2c(CCc3ccc(C#N)cc3)cccc12)NC[C@H](O)COc1ccccc1-c1cccs1` [Example 187], for which the “Emax (%) ± SEM” value was determined as 77.9 ± 0.7%.
For the molecule `CC(C)(Cc1c[nH]c2c(C=CC(N)=O)cccc12)NCC(O)COc1ccccc1-c1cccs1` (stereo not drawn) [Example 139], the “Emax (%) ± SEM” value came out at 86.5 ± 5.5%.
Turning to `CC(C)(Cc1c[nH]c2c(NS(=O)(=O)c3ccccc3)cccc12)NC[C@H](O)COc1ccccc1-c1cccs1` [Example 25], the “Emax (%) ± SEM” value is 89.6 ± 10.9%.
As for `COC(=O)c1ccc2c(ccn2C[C@@H](C)NC[C@H](O)COc2ccccc2-c2cccs2)c1` [Example 154], the “Emax (%) ± SEM” value turned out to be 32.4 ± 8.1%.
On to `CC(C)(Cc1c[nH]c2c(-c3ccc(C(F)(F)F)cc3)cccc12)NC[C@H](O)COc1ccccc1-c1cccs1` [Example 104], for which the “Emax (%) ± SEM” value worked out at 59.2 ± 1.0%.
On the same count and under the same terms, under `CC(C)(Cc1c[nH]c2ccc(C#N)cc12)NC[C@H](O)COc1ccccc1-c1cccs1` [Example 74] stands 28.3 ± 2.6%; under `CC(C)(Cc1c[nH]c2c(-c3ccc(C(N)=O)cc3)cccc12)NC[C@H](O)COc1ccccc1-c1cccs1` [Example 102], 69.0 ± 2.2%.
For the molecule `CC(C)(Cc1c[nH]c2cc(F)ccc12)NC[C@H](O)COc1ccccc1-c1cccs1` [Example 158], the “Emax (%) ± SEM” value is reported as 69.6 ± 4.8%.
For `COC(=O)c1cccc2c(CC(C)(C)NC[C@H](O)COc3ccccc3-c3cccs3)c[nH]c12` [Example 76], the “Emax (%) ± SEM” value is 67.6 ± 5.2%.
In the case of `CC(=O)c1ccc(-c2cccc3c(CC(C)(C)NC[C@H](O)COc4ccccc4-c4cccs4)c[nH]c23)cc1` [Example 48], the “Emax (%) ± SEM” value is 60.4 ± 6.0%.
With `Cc1cc(-c2ccccc2OC[C@@H](O)CNC(C)(C)Cc2c[nH]c3c(OCC#N)cccc23)cs1.O=C(O)C(F)(F)F` [Example 18], the “Emax (%) ± SEM” value amounted to 52.3 ± 0.7%.
For the molecule `CC(C)(Cc1c[nH]c2ccccc12)NC[C@H](O)COc1ccccc1-c1cccs1` [Example 157], the “Emax (%) ± SEM” value amounted to 51.3 ± 7.8%.
In the case of `CC(C)(Cc1c[nH]c2c(Oc3cc(C#N)ccn3)cccc12)NC[C@H](O)COc1ccccc1-c1cccs1` [Example 114], the “Emax (%) ± SEM” value came to 72.1 ± 5.0%.
For `Cc1cc(-c2ccccc2OC[C@@H](O)CNC(C)(C)Cc2c[nH]c3c(OCC#N)cccc23)on1.O=C(O)C(F)(F)F` [Example 10], the “Emax (%) ± SEM” value is 63.2 ± 5.3%.
Turning to `CC(C)(Cc1c[nH]c2c(Oc3ccc(C#N)cn3)cccc12)NC[C@H](O)COc1ccccc1-c1cccs1` [Example 115], the “Emax (%) ± SEM” value worked out at 83.3 ± 4.0%.
`C[C@H](Cn1ccc2c(OCC#N)cccc21)NC[C@H](O)COc1ccccc1-c1ccns1` [Example 151]: the “Emax (%) ± SEM” value is recorded as 52.4 ± 4.3%.
For `CC(C)(NC[C@H](O)COc1ccccc1-c1cccs1)C(=O)N1CCc2ccccc21` [Example 192], the “Emax (%) ± SEM” value came out at 55.6 ± 6.0%.
As for `CC(C)(Cc1c[nH]c2cccc(F)c12)NC[C@H](O)COc1ccccc1-c1cccs1` [Example 162], the “Emax (%) ± SEM” value was found to be 64.2 ± 7.6%.
Consider `CC(C)(Cc1c[nH]c2c(OCC#N)cccc12)NC[C@H](O)COc1ccccc1-c1cc(C#N)cs1.O=C(O)C(F)(F)F` [Example 20], for which the “Emax (%) ± SEM” value was 59.1 ± 3.1%.
With `COC(=O)c1ccc(-c2cccc3c(CC(C)(C)NC[C@H](O)COc4ccccc4-c4cccs4)c[nH]c23)s1` [Example 181], the “Emax (%) ± SEM” value stood at 39.6 ± 0.7%.
Turning to `CC(C)(Cc1c[nH]c2c(F)cccc12)NC[C@H](O)COc1ccccc1-c1cccs1` [Example 170], the “Emax (%) ± SEM” value was 71.2 ± 1.2%.
In the case of `CC(=O)c1ccc(-c2cccc3c(CC(C)(C)NC[C@H](O)COc4ccccc4-c4ccon4)c[nH]c23)cc1` [Example 49], the “Emax (%) ± SEM” value worked out at 44.2 ± 1.2%.
As to `CC(C)(Cc1c[nH]c2ccc(C(N)=O)cc12)NC[C@H](O)COc1ccccc1-c1cccs1` [Example 71], the “Emax (%) ± SEM” value worked out at 47.4 ± 1.8%.
Same read-out and setting: under `CC(C)(Cc1c[nH]c2ccccc12)NC[C@H](O)COc1ccccc1-c1ccns1` [Example 83] stands 73.7 ± 2.0%; under `C[C@H](Cn1ccc2cc(OCC#N)ccc21)NC[C@H](O)COc1ccccc1-c1cccs1` [Example 155], 58.7 ± 13.4%; under `CC(C)(Cc1c[nH]c2c(Oc3ccc(C#N)cn3)cccc12)NC[C@H](O)COc1ccccc1-c1ccon1` [Example 116], 58.1 ± 1.6%.
Consider `CC(C)(Cc1c[nH]c2c(CCS(C)(=O)=O)cccc12)NC[C@H](O)COc1ccccc1-c1cccs1` [Example 142], for which the “Emax (%) ± SEM” value was 82.1 ± 1.4%.
Consider `C[C@H](Cn1ccc2c(OCC#N)cccc21)NC[C@H](O)COc1ccccc1-c1ccon1` [Example 150], for which the “Emax (%) ± SEM” value is recorded as 46.6 ± 1.9%.
For the molecule `CC(C)(Cc1c[nH]c2c(OCC#N)cccc12)NC[C@H](O)COc1ccccc1-c1ncco1.O=C(O)C(F)(F)F` [Example 8], the “Emax (%) ± SEM” value was determined as 82.2 ± 3.8%.
Turning to `C[C@H](Cn1ccc2ccccc21)NC[C@H](O)COc1ccccc1-c1nccs1` [Example 66], the “Emax (%) ± SEM” value is 34.8 ± 3.2%.
As to `CC(C)(Cc1c[nH]c2c(-c3ccc(C(N)=O)cc3)cccc12)NC[C@H](O)COc1ccccc1-c1ccon1` [Example 103], the “Emax (%) ± SEM” value was found to be 57.1 ± 2.4%.
As for `CC(C)(Cc1c[nH]c2c(C(=O)O)cccc12)NC[C@H](O)COc1ccccc1-c1ccsc1` [Example 61], the “Emax (%) ± SEM” value was 56.6 ± 2.7%.
On to `CC(C)(Cc1c[nH]c2ccccc12)NC[C@H](O)COc1ccccc1-c1cocn1` [Example 31], for which the “Emax (%) ± SEM” value was found to be 62.4 ± 2.1%.
`CC(C)(Cc1c[nH]c2ccccc12)NC[C@H](O)COc1ccccc1-c1ccsc1.Cl` [Example 51]: the “Emax (%) ± SEM” value stood at 58.3 ± 1.3%.
Still for that read-out and setting: the same measure for `Cc1cc(-c2ccccc2OC[C@@H](O)CNC(C)(C)Cc2c[nH]c3ccccc23)cs1.O=C(O)C(F)(F)F` [Example 17]: 43.1 ± 3.0%.
Consider `C[C@H](Cn1ccc2c(OCC#N)cccc21)NC[C@H](O)COc1ccccc1-c1cccs1` [Example 152], for which the “Emax (%) ± SEM” value stood at 63.1 ± 4.4%.
`CC(C)(Cc1c[nH]c2c(C=Cc3ccc(S(N)(=O)=O)cc3)cccc12)NC[C@H](O)COc1ccccc1-c1cccs1` [Example 189]: the “Emax (%) ± SEM” value is 64.5 ± 1.7%.

The same assay, now with this note: CHO, % intrinsic activity relative to isoproterenol; transfected CHO cells.
Turning to `CC(C)(Cc1c[nH]c2cc(C(=O)O)ccc12)NC[C@H](O)COc1ccccc1-c1nccs1` [Example 204], the Emax worked out at 67%.
`CC(C)(Cc1c[nH]c2c(OCC#N)cccc12)NC[C@H](O)COc1ccccc1-c1ccc(C#N)s1` [Example 202]: the Emax was 85%.

The assay is the same for the next values; noted with them: CHO, % intrinsic activity: maximal response divided by isoproterenol maximal response times 100; transfected CHO cells; average of at least 3 runs.
With `CC(C)(Cc1c[nH]c2c(Oc3ccc(C(N)=O)cn3)cccc12)NC[C@H](O)COc1ccccc1-c1ccon1` [Example 245], the maximum response (Emax) stood at 63.3 ± 3%.
`CC(C)(Cc1c[nH]c2c(-c3ccc(C(=O)O)cc3)cccc12)NC[C@H](O)COc1ccccc1-c1ccon1` [Example 247] had a maximum response (Emax) of 54.6 ± 2.4%.
In the case of `CC(C)(Cc1c[nH]c2c(OCC(=O)O)cccc12)NC[C@H](O)COc1ccccc1-c1nccs1` [Example 234], the Emax stood at 66.4 ± 6.4%.
`CC(C)(Cc1c[nH]c2cc(OCC(=O)O)ccc12)NC[C@H](O)COc1ccccc1-c1cccs1` [Example 236] showed a maximal response (Emax) of 88.4 ± 3.9%.
In turn, `CC(C)(Cc1c[nH]c2c(-c3ccc(C(=O)O)s3)cccc12)NC[C@H](O)COc1ccccc1-c1cccs1` [Example 250] came in with a maximum response (Emax) of 92.5 ± 5.1%.
In the case of `CC(C)(Cc1c[nH]c2cc(/C=C/c3nnn[nH]3)ccc12)NC[C@H](O)COc1ccccc1-c1cccs1` [Example 252], the Emax was 82.3 ± 4%.
As to `CC(C)(Cc1c[nH]c2cc(CCc3nnn[nH]3)ccc12)NC[C@H](O)COc1ccccc1-c1cccs1` [Example 255], the maximal effect (Emax) was 83.9 ± 3.2%.
Molecule `CC(C)(Cc1c[nH]c2c(CCn3cncn3)cccc12)NC[C@H](O)COc1ccccc1-c1cccs1` [Example 222] yielded a maximum response (Emax) of 81.2 ± 0.9%.
`CC(C)(Cc1c[nH]c2ccc(OCC(=O)O)cc12)NC[C@H](O)COc1ccccc1-c1cccs1` [Example 237]: the Emax is 73.9 ± 2.9%.
